Data from patent publication US11725036B2, “Modified lipidated relaxin B chain peptides and their therapeutic use” (Sanofi, priority 2018, dated 2023).
In brackets after ≈: the same amount, converted by molar mass. Read-outs that look alike come from different tables or passages of the source. Starred links: 1 amine or outer side, 2 acyl side, 3 side chain; linkers in the order of their positions; H or OH if unused. Non-standard residues stand in square brackets, D forms with d. Residues, ends and D or L forms follow the SMILES beside them. Groups on a side chain read outwards from the residue. *: point of attachment. X1 = CCCCCCCCCCCCCCCC(=O)N[C@@H](CCC(=O)N[C@@H](CCC(=O)N[C@@H](CCC(=O)NCCCOCCOCCOCCCNC(=O)CCC(=O)NCCCOCCOCCOCCCNC(=O)CCC(=O)NCCCOCCOCCOCCCN*)C(=O)O)C(=O)O)C(=O)O; γGlu = O=C(O)[C@H](CCC(=O)[*:2])N[*:1]; Stearoyl = CCCCCCCCCCCCCCCCCC(=O)*; Suc = O=C(CCC(=O)[*:2])[*:1]; AEEA = NCCOCCOCC(=O)O; Aib = CC(C)(N)C(=O)O

Columns and labels:
RXFP1 = target: T1, RXFP1 (Homo sapiens, UniProt Q9HBX9); assay: OVCAR5 cAMP assay (HTRF); format: cell-based; details: for EC50: OVCAR 5 cells expressing endogenous RXFP1, cAMP readout; for Emax: OVCAR 5 cells, maximal cAMP relative to H2-relaxin
T1 construct: OVCAR5 cells expressing endogenous RXFP1; endogenous in cells; host or cells: OVCAR5
T1 sequence (Q9HBX9 1-757): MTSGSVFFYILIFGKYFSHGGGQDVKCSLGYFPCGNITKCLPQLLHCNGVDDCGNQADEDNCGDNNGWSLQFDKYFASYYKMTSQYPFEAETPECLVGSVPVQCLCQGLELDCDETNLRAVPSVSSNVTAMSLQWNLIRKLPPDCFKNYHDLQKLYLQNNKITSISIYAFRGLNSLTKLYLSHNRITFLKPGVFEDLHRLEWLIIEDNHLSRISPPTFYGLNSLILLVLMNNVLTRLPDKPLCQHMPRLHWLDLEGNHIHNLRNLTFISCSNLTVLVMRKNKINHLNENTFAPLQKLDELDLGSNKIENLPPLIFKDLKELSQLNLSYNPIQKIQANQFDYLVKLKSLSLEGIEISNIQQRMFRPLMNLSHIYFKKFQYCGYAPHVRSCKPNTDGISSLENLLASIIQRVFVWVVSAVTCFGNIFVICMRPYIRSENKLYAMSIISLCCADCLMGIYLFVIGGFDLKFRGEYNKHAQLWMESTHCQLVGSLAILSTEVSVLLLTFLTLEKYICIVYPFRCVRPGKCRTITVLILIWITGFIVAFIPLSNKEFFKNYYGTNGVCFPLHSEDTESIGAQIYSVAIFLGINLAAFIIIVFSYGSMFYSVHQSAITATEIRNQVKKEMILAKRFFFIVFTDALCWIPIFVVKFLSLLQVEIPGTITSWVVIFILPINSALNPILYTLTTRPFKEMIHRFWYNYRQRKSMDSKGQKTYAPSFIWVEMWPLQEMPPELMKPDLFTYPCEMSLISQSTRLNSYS
Method in brief: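 Endogenous RXFP1 in OVCAR5 cells, pretreated 40 min at 37° C with 1 mM IBMX, then exposed to increasing peptide concentrations in serum-free medium for 30 min at 37° C. cAMP read by HTRF; EC50 by variable-slope sigmoidal fit, Emax as % of H2-relaxin maximal cAMP in same run.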

[1] = Solubility testing in buffer; format: physicochemical; details: target solubility 10.0 mg/ml
Experimental: Prior to the testing of solubility of a peptide batch, its purity (HPLC-UV) was determined.
Acetate Buffer 50 mM pH4.5: 0.75 g C2H3C02Na,3H2O (Sigma S7545)+0.35 ml CH3CO2H 100% solution dissolved in Millipore water, adjusted to pH with diluted (1:1) CH3CO2H and diluted to 250 ml with Millipore water.
In a 4 ml Ependorph vial, an accurately weighed sample of compound was diluted in study media to obtain target concentration of 2, 6 or 10 mg/ml of pure compound. The sample vials were shacked (rock 'roll shaker) for ˜19 h. 300 μL aliquots were filtered through a Millipore “Solvinert” plate (0.45 μm-PTFE hydrophilic).
pH was measured with a micro electrode
Waters Acquity UPLC System with DAD detector
Column: Waters Peptide Column CSH C18 (130 Å; 1.7 μm; 50*2.1 mm)
Column temperature: 60° C.
Full loop (about 5 μL)—overfill factor 5
Weak et Strong wash: H2O/ACN (75/25; V/V); Seal wash: H2O/IsOH (95/5; V/V). Mobile phase:
Solvent A: 0.05% TFA in H2O; Solvent B: 0.035% TFA in CH3CN
Gradient: from 0 to 12 min B=2% to 60%, from 12 to 14 min B=60% to 100%. Column washing 100% B 1 min, column equilibration 2% B 2.5 min.
UV detector: wavelength: 220 nm.

[2] = acetate buffer 50 mM pH 4.5, read-out: Solubility Acetate buffer pH 4.5
[3] = phosphate buffer 50 mM pH 7.4, read-out: Solubility phosphate buffer pH 7.4

| Structure (SMILES) | EC50 (RXFP1) [nM] | Emax (RXFP1) [%] | solubility [1, 2] [µg/mL] | solubility [1, 3] [µg/mL] |
| --- | --- | --- | --- | --- |
| CCCCCCCCCCCCCCCCCC(=O)N[C@@H](CCC(=O)N[C@@H](CCC(=O)N[C@@H](CCC(=O)NCCOCCOCC(=O)NCCOCCOCC(=O)NCCOCCOCC(=O)NCCOCCOCC(=O)NCCCC[C@H](NC(=O)CNC(=O)[C@H](CCC(=O)O)NC(=O)C(C)(C)NC(=O)C(C)(C)NC(=O)[C@@H](NC(=O)[C@H](CCCCNC(C)=O)NC(=O)[C@H](C)NC(=O)[C@H](CCCNC(=N)N)NC(=O)[C@@H](NC(=O)[C@H](CCCCN)NC(=O)[C@H](CCC(=O)O)NC(=O)[C@H](CCCNC(=N)N)NC(=O)CNC(=O)[C@H](CCC(=O)O)NC(=O)[C@H](CC(C)C)NC(C)=O)C(C)C)[C@@H](C)CC)C(=O)N[C@@H](CO)C(=O)N[C@H](C(=O)N[C@@H](Cc1c[nH]c2ccccc12)C(=O)N[C@@H](CO)C(=O)NC(C)(C)C(=O)N[C@@H](CCCNC(=N)N)C(=O)N[C@@H](CCCCN)C(=O)N[C@@H](CCCCNC(C)=O)C(N)=O)[C@@H](C)O)C(=O)O)C(=O)O)C(=O)O [compound 21] (Ac-LEGREKVRAK(Ac)I[Aib][Aib]EGK([AEEA-AEEA-AEEA-AEEA-γGlu-γGlu-γGlu-Stearoyl])STWS[Aib]RKK(Ac)-NH2) | 0.65 | 93 | 6280 (≈ 1530 µM) | 6590 (≈ 1610 µM) |
| CCCCCCCCCCCCCCCC(=O)N[C@@H](CCC(=O)N[C@@H](CCC(=O)N[C@@H](CCC(=O)NCCCOCCOCCOCCCNC(=O)CCC(=O)NCCCOCCOCCOCCCNC(=O)CCC(=O)NCCCOCCOCCOCCCNC(=O)CCC(=O)NCCCC[C@H](NC(=O)CNC(=O)[C@H](CCC(=O)O)NC(=O)[C@@H](NC(=O)C(C)(C)NC(=O)[C@@H](NC(=O)[C@H](CCCCNC(C)=O)NC(=O)[C@H](C)NC(=O)[C@H](CCCNC(=N)N)NC(=O)[C@@H](NC(=O)[C@H](CCCCN)NC(=O)[C@H](CCC(=O)O)NC(=O)[C@H](CCCNC(=N)N)NC(=O)CNC(=O)[C@H](CCC(=O)O)NC(=O)[C@H](CC(C)C)NC(C)=O)C(C)C)[C@@H](C)CC)[C@@H](C)CC)C(=O)N[C@@H](CO)C(=O)N[C@H](C(=O)N[C@@H](Cc1c[nH]c2ccccc12)C(=O)N[C@@H](CO)C(=O)NC(C)(C)C(=O)N[C@@H](CCCNC(=N)N)C(=O)N[C@@H](CCCCN)C(=O)N[C@@H](CCCCNC(C)=O)C(N)=O)[C@@H](C)O)C(=O)O)C(=O)O)C(=O)O [compound 70] (Ac-LEGREKVRAK(Ac)I[Aib]IEGK([Suc-X1])STWS[Aib]RKK(Ac)-NH2) | 1.34 | 94 | 8240 (≈ 1860 µM) | 9680 (≈ 2190 µM) |
| CCCCCCCCCCCCCCCC(=O)N[C@@H](CCC(=O)N[C@@H](CCC(=O)N[C@@H](CCC(=O)NCCCOCCOCCOCCCNC(=O)CCC(=O)NCCCOCCOCCOCCCNC(=O)CCC(=O)NCCCOCCOCCOCCCNC(=O)CCC(=O)NCCCC[C@H](NC(=O)CNC(=O)[C@H](CCC(=O)O)NC(=O)C(C)(C)NC(=O)C(C)(C)NC(=O)[C@@H](NC(=O)[C@H](CCCCNC(C)=O)NC(=O)[C@H](C)NC(=O)[C@H](CCCNC(=N)N)NC(=O)[C@@H](NC(=O)[C@H](CCCCN)NC(=O)[C@H](CCC(=O)O)NC(=O)[C@H](CCCNC(=N)N)NC(=O)CNC(=O)[C@H](CCC(=O)O)NC(=O)[C@H](CC(C)C)NC(C)=O)C(C)C)[C@@H](C)CC)C(=O)N[C@@H](CO)C(=O)N[C@H](C(=O)N[C@@H](Cc1c[nH]c2ccccc12)C(=O)N[C@H](CO)C(=O)N[C@@H](CCCCN)C(=O)N[C@@H](CCCNC(=N)N)C(=O)N[C@@H](C)C(=O)N[C@@H](CCCCNC(C)=O)C(N)=O)[C@@H](C)O)C(=O)O)C(=O)O)C(=O)O [compound 44] (Ac-LEGREKVRAK(Ac)I[Aib][Aib]EGK([Suc-X1])STW[dS]KRAK(Ac)-NH2) | 2.2 | 97 | 11100 (≈ 2520 µM) | 10700 (≈ 2440 µM) |
